PubChem BioAssay AID1259407 (Chemical Carcinogenesis Research Information System (CCRIS), 2018)
Activity calls are given as the source filed them. The rule behind the calls is not given here.

Tested on: CCRIS mutagenicity, Ames/micronucleus/aberration tests
Assay: CCRIS mutagenicity studies
[1] = Test System: AMES SALMONELLA TYPHIMURIUM, Strain/Indicator: TA100, Metabolic Activation: NONE, Method: PREINCUBATION

## N#CCO
Test System: AMES SALMONELLA TYPHIMURIUM, Strain/Indicator: TA97, Metabolic Activation: HAMSTER, LIVER, S-9, AROCLOR 1254 (10%), Method: PREINCUBATION
  mutagenic call: inactive; negative
Test System: AMES SALMONELLA TYPHIMURIUM, Strain/Indicator: TA97, Metabolic Activation: HAMSTER, LIVER, S-9, AROCLOR 1254 (30%), Method: PREINCUBATION
  mutagenic call: inactive; negative
Test System: AMES SALMONELLA TYPHIMURIUM, Strain/Indicator: TA97, Metabolic Activation: NONE, Method: PREINCUBATION
  mutagenic call: inactive; negative
Test System: AMES SALMONELLA TYPHIMURIUM, Strain/Indicator: TA97, Metabolic Activation: RAT, LIVER, S-9, AROCLOR 1254 (10 OR 30%), Method: PREINCUBATION
  mutagenic call: inactive; negative
Test System: AMES SALMONELLA TYPHIMURIUM, Strain/Indicator: TA98, Metabolic Activation: HAMSTER, LIVER, S-9, AROCLOR 1254 (10%), Method: PREINCUBATION
  mutagenic call: inactive; negative
Test System: AMES SALMONELLA TYPHIMURIUM, Strain/Indicator: TA98, Metabolic Activation: HAMSTER, LIVER, S-9, AROCLOR 1254 (30%), Method: PREINCUBATION
  mutagenic call: inactive; negative
Test System: AMES SALMONELLA TYPHIMURIUM, Strain/Indicator: TA98, Metabolic Activation: NONE, Method: PREINCUBATION
  mutagenic call: inactive; negative
Test System: AMES SALMONELLA TYPHIMURIUM, Strain/Indicator: TA98, Metabolic Activation: RAT, LIVER, S-9, AROCLOR 1254 (10%), Method: PREINCUBATION
  mutagenic call: inactive; negative
Test System: AMES SALMONELLA TYPHIMURIUM, Strain/Indicator: TA98, Metabolic Activation: RAT, LIVER, S-9, AROCLOR 1254 (30%), Method: PREINCUBATION
  mutagenic call: inactive; negative
Test System: AMES SALMONELLA TYPHIMURIUM, Strain/Indicator: TA100, Metabolic Activation: HAMSTER, LIVER, S-9, AROCLOR 1254 (10%), Method: PREINCUBATION
  mutagenic call: inactive; negative
Test System: AMES SALMONELLA TYPHIMURIUM, Strain/Indicator: TA100, Metabolic Activation: HAMSTER, LIVER, S-9, AROCLOR 1254 (30%), Method: PREINCUBATION
  mutagenic call: inactive; negative
[1]
  mutagenic call: inactive; negative
Test System: AMES SALMONELLA TYPHIMURIUM, Strain/Indicator: TA100, Metabolic Activation: RAT, LIVER, S-9, AROCLOR 1254 (10%), Method: PREINCUBATION
  mutagenic call: inactive; negative
Test System: AMES SALMONELLA TYPHIMURIUM, Strain/Indicator: TA100, Metabolic Activation: RAT, LIVER, S-9, AROCLOR 1254 (30%), Method: PREINCUBATION
  mutagenic call: inactive; negative
Test System: AMES SALMONELLA TYPHIMURIUM, Strain/Indicator: TA1535, Metabolic Activation: HAMSTER, LIVER, S-9, AROCLOR 1254 (10%), Method: PREINCUBATION
  mutagenic call: inactive; negative
Test System: AMES SALMONELLA TYPHIMURIUM, Strain/Indicator: TA1535, Metabolic Activation: HAMSTER, LIVER, S-9, AROCLOR 1254 (30%), Method: PREINCUBATION
  mutagenic call: inactive; negative
Test System: AMES SALMONELLA TYPHIMURIUM, Strain/Indicator: TA1535, Metabolic Activation: NONE, Method: PREINCUBATION
  mutagenic call: inactive; negative
Test System: AMES SALMONELLA TYPHIMURIUM, Strain/Indicator: TA1535, Metabolic Activation: RAT, LIVER, S-9, AROCLOR 1254 (10%), Method: PREINCUBATION
  mutagenic call: inactive; negative
Test System: AMES SALMONELLA TYPHIMURIUM, Strain/Indicator: TA1535, Metabolic Activation: RAT, LIVER, S-9, AROCLOR 1254 (30%), Method: PREINCUBATION
  mutagenic call: inactive; negative

## Nc1ccc2c(c1)Cc1cc([N+](=O)[O-])ccc1-2
Test System: AMES SALMONELLA TYPHIMURIUM, Strain/Indicator: TA98, Metabolic Activation: HAMSTER, LIVER, S-9, 3-METHYLCHOLANTHRENE, Method: STANDARD PLATE
  mutagenic call: active; positive
Test System: AMES SALMONELLA TYPHIMURIUM, Strain/Indicator: TA98, Metabolic Activation: HAMSTER, LIVER, S-9, Method: STANDARD PLATE
  mutagenic call: active; positive

## C[C@H]1CCCC(=O)CCC/C=C/c2cc(O)cc(O)c2C(=O)O1
End Point: IN VITRO CHROMOSOMAL ABERRATIONS, Test System: BOVINE LYMPHOCYTES, Metabolic Activation: NONE
  mutagenic call: active; positive (structural changes)
End Point: In vitro chromosomal aberrations, Test System: Green monkey kidney (Vero) cells, Metabolic Activation: None
  mutagenic call: active; positive (structural changes)
End Point: In vitro chromosomal aberrations, Test System: Monkey kidney Vero cells, Metabolic Activation: None
  mutagenic call: active; positive
End Point: In vitro micronucleus, Test System: Green monkey kidney (Vero) cells, Metabolic Activation: None
  mutagenic call: active; positive
End Point: In vivo chromosomal aberrations, Test System: Bone marrow cells, Species: Mouse, Strain/Sex: Balb/C/Female, Route: Oral
  mutagenic call: active; positive (structural changes) (effect diminished by administering clay)
End Point: In vivo chromosomal aberrations, Test System: Bone marrow erythrocytes, Species: Mouse, Strain/Sex: Balb/C, Route: Intraperitoneal
  mutagenic call: active; positive (structural changes)
End Point: In vivo micronucleus, Test System: Bone marrow cells, Species: Mouse, Strain/Sex: Balb/C/Female, Route: Oral
  mutagenic call: active; positive (effect diminished by administering clay)
End Point: In vivo micronucleus, Test System: Bone marrow erythrocytes, Species: Mouse, Strain/Sex: Balb/C, Route: Intraperitoneal
  mutagenic call: active; positive (p<0.05)
End Point: UDS Monkey kidney Vero cells, Strain/Indicator: Thymidine incorporation, Metabolic Activation: None, Method: Liquid scintillation counting
  mutagenic call: active; positive. prevented by vitamin e at 25 um.
Test System: AMES SALMONELLA TYPHIMURIUM, Strain/Indicator: TA98, Metabolic Activation: HAMSTER, LIVER, S-9, AROCLOR 1254, Method: STANDARD PLATE
  mutagenic call: inactive; negative
Test System: AMES SALMONELLA TYPHIMURIUM, Strain/Indicator: TA98, Metabolic Activation: NONE, Method: STANDARD PLATE
  mutagenic call: inactive; negative
Test System: AMES SALMONELLA TYPHIMURIUM, Strain/Indicator: TA98, Metabolic Activation: RAT, LIVER, MICROSOMES, PHENOBARBITAL, Method: STANDARD PLATE
  mutagenic call: inactive; negative
Test System: AMES SALMONELLA TYPHIMURIUM, Strain/Indicator: TA98, Metabolic Activation: RAT, LIVER, S-9, AROCLOR 1254, Method: STANDARD PLATE
  mutagenic call: inactive; negative
Test System: AMES SALMONELLA TYPHIMURIUM, Strain/Indicator: TA98, Metabolic Activation: RAT, LIVER, S-9, Method: STANDARD PLATE
  mutagenic call: inactive; negative
Test System: AMES SALMONELLA TYPHIMURIUM, Strain/Indicator: TA100, Metabolic Activation: HAMSTER, LIVER, S-9, AROCLOR 1254, Method: STANDARD PLATE
  mutagenic call: inactive; negative
[1]
  mutagenic call: inactive; negative
Test System: AMES SALMONELLA TYPHIMURIUM, Strain/Indicator: TA100, Metabolic Activation: RAT, LIVER, MICROSOMES, PHENOBARBITAL, Method: STANDARD PLATE
  mutagenic call: inactive; negative
Test System: AMES SALMONELLA TYPHIMURIUM, Strain/Indicator: TA100, Metabolic Activation: RAT, LIVER, S-9, AROCLOR 1254, Method: STANDARD PLATE
  mutagenic call: inactive; negative
Test System: AMES SALMONELLA TYPHIMURIUM, Strain/Indicator: TA100, Metabolic Activation: RAT, LIVER, S-9, PHENOBARBITAL, Method: PREINCUBATION
  mutagenic call: inactive; negative
Test System: AMES SALMONELLA TYPHIMURIUM, Strain/Indicator: TA100, Metabolic Activation: RAT, LIVER, S-9, Method: STANDARD PLATE
  mutagenic call: inactive; negative; toxicity at 1000 ug/plate
Test System: AMES SALMONELLA TYPHIMURIUM, Strain/Indicator: TA1535, Metabolic Activation: HAMSTER, LIVER, S-9, AROCLOR 1254, Method: STANDARD PLATE
  mutagenic call: inactive; negative
Test System: AMES SALMONELLA TYPHIMURIUM, Strain/Indicator: TA1535, Metabolic Activation: NONE, Method: STANDARD PLATE
  mutagenic call: inactive; negative
Test System: AMES SALMONELLA TYPHIMURIUM, Strain/Indicator: TA1535, Metabolic Activation: RAT, LIVER, S-9, AROCLOR 1254, Method: STANDARD PLATE
  mutagenic call: inactive; negative
Test System: AMES SALMONELLA TYPHIMURIUM, Strain/Indicator: TA1535, Metabolic Activation: RAT, LIVER, S-9, Method: STANDARD PLATE
  mutagenic call: inactive; negative
Test System: AMES SALMONELLA TYPHIMURIUM, Strain/Indicator: TA1537, Metabolic Activation: HAMSTER, LIVER, S-9, AROCLOR 1254, Method: STANDARD PLATE
  mutagenic call: inactive; negative
Test System: AMES SALMONELLA TYPHIMURIUM, Strain/Indicator: TA1537, Metabolic Activation: NONE, Method: STANDARD PLATE
  mutagenic call: inactive; negative
Test System: AMES SALMONELLA TYPHIMURIUM, Strain/Indicator: TA1537, Metabolic Activation: RAT, LIVER, S-9, AROCLOR 1254, Method: STANDARD PLATE
  mutagenic call: inactive; negative
Test System: AMES SALMONELLA TYPHIMURIUM, Strain/Indicator: TA1537, Metabolic Activation: RAT, LIVER, S-9, Method: STANDARD PLATE
  mutagenic call: inactive; negative; toxicity at 500 and 1000 ug/plate
Test System: AMES SALMONELLA TYPHIMURIUM, Strain/Indicator: TA1538, Metabolic Activation: HAMSTER, LIVER, S-9, AROCLOR 1254, Method: STANDARD PLATE
  mutagenic call: inactive; negative
Test System: AMES SALMONELLA TYPHIMURIUM, Strain/Indicator: TA1538, Metabolic Activation: RAT, LIVER, S-9, AROCLOR 1254, Method: STANDARD PLATE
  mutagenic call: inactive; negative
Test System: AMES SALMONELLA TYPHIMURIUM, Strain/Indicator: TA1538, Metabolic Activation: RAT, LIVER, S-9, Method: STANDARD PLATE
  mutagenic call: inactive; negative; toxicity at 1000 ug/plate
